Experimental data: US20240391954A1, “MC4R AGONIST PEPTIDES” (The Regents of the University of Michigan, priority 2021, published 2024)
pEC50: −log10 of the molar value. Positions of bridges follow the written chain, without caps; N, C: chain ends. Non-standard residues stand in square brackets, D forms with d. Residues, ends and D or L forms follow the SMILES beside them. 1Nal = N[C@@H](Cc1cccc2ccccc12)C(=O)O; d1Nal = N[C@H](Cc1cccc2ccccc12)C(=O)O; hCit = NC(=O)NCCCC[C@H](N)C(=O)O; 2Pal = N[C@@H](Cc1ccccn1)C(=O)O; Cit = NC(=O)NCCC[C@H](N)C(=O)O; Nle = CCCC[C@H](N)C(=O)O; Aib = CC(C)(N)C(=O)O

How the values were obtained:
Type in all cases: cell-based
human MC3R = target: T1, human MC3R (Homo sapiens, UniProt P41968); assay: split-luciferase cAMP sensor assay, agonist mode (measurement window 1), hMC3R; conditions: for Emax: read-out: MC3R cAMP % max activation; for MC4R selectivity vs MC3R: MC4R versus MC3R; for pEC50: HEK-293 cells stably expressing hMC3R, read-out: MC3R cAMP EC50
T1 construct: expressed in transfected cells; host or cells: HEK-293 cells stably expressing the GScAMP22F split-luciferase cAMP sensor (parent reporter line from Promega); MC3R clone generated in-house, G418 selection
Method in brief: (§1)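 EC50 values come from a four-parameter variable-slope fit of luminescence in measurement window 1, capturing direct peptide effects on receptor-expressing cells with a cAMP22f luciferase sensor. Cells were preloaded with 4% D-luciferin, serum-free medium; 20 μM forskolin normalized for cell number and transducer efficiency.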

human MC1R = target: T2, human MC1R (Homo sapiens, UniProt Q01726); assay: split-luciferase cAMP sensor assay, agonist mode, hMC1R; conditions: MC4R versus MC1R
T2 construct: expressed in transfected cells; host or cells: HEK-293 cells stably expressing hMC1R and the GScAMP22F cAMP sensor
Method in brief: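 HEK-293 cells stably expressing hMC1R and the GScAMP22F split-luciferase cAMP sensor, preloaded 120 min at 37° C with D-luciferin in serum-free medium. Peptide responses were taken as peak luminescence over 2-13 min minus 2-min baseline, normalized to the α-MSH ECmax. EC50 was obtained from a four-parameter variable-slope fit.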

human MC4R = target: T3, human MC4R (Homo sapiens, UniProt P32245); assay: split-luciferase cAMP sensor assay, agonist mode (measurement window 1), hMC4R; conditions: agonist mode; for Emax: read-out: MC4R cAMP % max activation; for pEC50: HEK-293 cells stably expressing hMC4R, read-out: MC4R cAMP EC50
T3 construct: host or cells: HEK-293 cells stably expressing the GScAMP22F split-luciferase cAMP sensor and hMC4R, G418 selection
Method in brief: as §1

[1] = % maximal activation, agonist mode

T2 sequence (Q01726 whole entry): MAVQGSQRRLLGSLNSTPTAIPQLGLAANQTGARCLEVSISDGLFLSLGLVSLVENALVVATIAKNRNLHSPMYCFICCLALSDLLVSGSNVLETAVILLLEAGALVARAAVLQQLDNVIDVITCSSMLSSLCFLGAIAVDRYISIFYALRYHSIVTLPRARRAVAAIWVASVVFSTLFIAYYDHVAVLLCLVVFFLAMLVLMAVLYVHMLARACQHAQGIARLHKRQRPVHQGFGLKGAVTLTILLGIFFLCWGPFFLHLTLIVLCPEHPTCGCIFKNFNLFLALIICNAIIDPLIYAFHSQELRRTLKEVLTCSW
T1 sequence (P41968 whole entry): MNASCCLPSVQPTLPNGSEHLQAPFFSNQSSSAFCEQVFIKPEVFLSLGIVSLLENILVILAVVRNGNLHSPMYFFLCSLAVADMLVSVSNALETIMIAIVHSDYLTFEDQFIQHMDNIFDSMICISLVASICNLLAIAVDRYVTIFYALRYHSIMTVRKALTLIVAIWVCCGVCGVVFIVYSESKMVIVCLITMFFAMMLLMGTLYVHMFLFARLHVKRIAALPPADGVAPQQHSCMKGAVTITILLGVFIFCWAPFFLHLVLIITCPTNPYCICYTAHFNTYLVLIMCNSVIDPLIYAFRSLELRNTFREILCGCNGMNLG
T3 sequence (P32245 whole entry): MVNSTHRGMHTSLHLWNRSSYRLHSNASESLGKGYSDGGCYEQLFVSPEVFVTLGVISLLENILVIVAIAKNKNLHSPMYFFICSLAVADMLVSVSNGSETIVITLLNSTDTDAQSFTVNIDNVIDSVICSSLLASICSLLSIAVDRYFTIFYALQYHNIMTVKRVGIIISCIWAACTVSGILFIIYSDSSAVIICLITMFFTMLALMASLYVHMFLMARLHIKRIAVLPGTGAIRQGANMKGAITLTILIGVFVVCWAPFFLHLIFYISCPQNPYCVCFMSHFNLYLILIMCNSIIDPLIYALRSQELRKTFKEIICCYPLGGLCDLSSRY

Row | Compound | Emax (human MC3R; [1]) [%] | MC4R selectivity vs MC3R (human MC3R) | MC4R selectivity vs MC1R (human MC1R) | Emax (human MC4R; % maximal activation) [%] | pEC50 (human MC3R; agonist mode) | pEC50 (human MC4R) | MC3R cAMP % max activation (human MC3R; [1]) | MC4R cAMP % max activation (human MC4R; % maximal activation)
1 | CC(=O)N[C@@H](CCCNC(=N)N)C(=O)N[C@H]1CSSC[C@@H](C(N)=O)NC(=O)[C@H](Cc2ccccc2)NC(=O)[C@H](CCCNC(=N)N)NC(=O)[C@@H](Cc2ccccc2)NC(=O)[C@H](Cc2ccccn2)NC(=O)C(C)(C)NC1=O [CTX-1604, Arg-cyclo(Cys-Aib-Pal(2′)-D-Phe-Arg-Phe-Cys)] (Ac-RC[Aib][2Pal][dF]RFC-NH2; disulfide 2-8 (inferred)) | 12 | 0.11 | 3.66 | 96 |  |  |  | 
2 | CC(=O)N[C@H]1CSSC[C@@H](C(N)=O)NC(=O)[C@H](Cc2c[nH]c3ccccc23)NC(=O)[C@H](CCCNC(=N)N)NC(=O)[C@@H](Cc2ccccc2)NC(=O)[C@H](CCCNC(=N)N)NC(=O)C(C)(C)NC1=O [CTX-1632, cyclo(Cys-Aib-Arg-D-Phe-Arg-Trp-Cys)] (Ac-C[Aib]R[dF]RWC-NH2; disulfide 1-7) | 77 | 36 | 3.18 | 105 |  |  |  | 
3 | CC(=O)N[C@H]1CSSC[C@@H](C(N)=O)NC(=O)[C@H](Cc2ccccc2)NC(=O)[C@H](CCCNC(=N)N)NC(=O)[C@@H](Cc2ccccc2)NC(=O)[C@H](CCCNC(N)=O)NC(=O)C(C)(C)NC1=O [CTX-1636, cyclo(Cys-Aib-Cit-D-Phe-Arg-Phe-Cys)] (Ac-C[Aib][Cit][dF]RFC-NH2; disulfide 1-7 (inferred)) | 44 | 9.44 | >12 | 102 |  |  |  | 
4 | CC(=O)N[C@@H](CCCNC(=N)N)C(=O)N[C@H]1CSSC[C@@H](C(N)=O)NC(=O)[C@H](Cc2ccccc2)NC(=O)[C@H](CCCNC(=N)N)NC(=O)[C@@H](Cc2ccccc2)NC(=O)[C@H](CCCCNC(N)=O)NC(=O)C(C)(C)NC1=O [CTX-1603, Arg-cyclo(Cys-Aib-homo-Cit-D-Phe-Arg-Phe-Cys)] (Ac-RC[Aib][hCit][dF]RFC-NH2; disulfide 2-8 (inferred)) |  | >18 | 2.46 | 91 | < 5.00 |  |  | 
5 | CC(=O)N[C@@H](CCCNC(=N)N)C(=O)N[C@H]1CSSC[C@@H](C(N)=O)NC(=O)[C@@H](Cc2c[nH]c3ccccc23)NC(=O)[C@H](CCCNC(=N)N)NC(=O)[C@@H](Cc2ccccc2)NC(=O)[C@H](CCCNC(=N)N)NC(=O)[C@@H](C)NC1=O [CTX-1263, Arg-cyclo(Cys-D-Ala-Arg-D-Phe-Arg-D-Trp-Cys)] (Ac-RC[dA]R[dF]R[dW]C-NH2; disulfide 2-8) | 69 | 1.62 | 1.73 | 93 | 7.96 |  |  | 
6 | C[C@H]1NC(=O)CSC[C@@H](C(N)=O)NC(=O)[C@H](Cc2c[nH]c3ccccc23)NC(=O)[C@H](CCCNC(=N)N)NC(=O)[C@@H](Cc2ccccc2)NC(=O)[C@H](CCCNC(=N)N)NC1=O [CTX-1642, Thioether-cyclo(D-Ala-Arg-D-Phe-Arg-Trp-Cys)] ({CH2CO}-[dA]R[dF]RWC-NH2; thioether N-6) | 90 | 29 | 13 | 107 |  | 8.54 |  | 
7 | N=C(N)NCCC[C@@H]1NC(=O)[C@@H](Cc2ccccc2)NC(=O)[C@H](CCCNC(N)=O)NC(=O)CNC(=O)CSC[C@@H](C(N)=O)NC(=O)[C@H](Cc2c[nH]c3ccccc23)NC1=O [CTX-1646, Thioether-cyclo(Gly-Cit-D-Phe-Arg-Trp-Cys)] ({CH2CO}-G[Cit][dF]RWC-NH2; thioether N-6) | 70 | 193 | >770 | 103 |  | 7.89 |  | 
8 | CCCC[C@H](NC(=O)[C@H](CCCNC(=N)N)NC(C)=O)C(=O)N[C@H]1CSSC[C@@H](C(N)=O)NC(=O)[C@H](Cc2c[nH]c3ccccc23)NC(=O)[C@H](CCCNC(=N)N)NC(=O)[C@H](Cc2cccc3ccccc23)NC(=O)[C@H](Cc2c[nH]cn2)NC1=O [CTX-1610, Arg-Nle-cyclo(Cys-His-Nal(1′)-Arg-Trp-Cys)] (Ac-R[Nle]CH[1Nal]RWC-NH2; disulfide 3-8) | 67 | 0.66 | 0.03 | 90 |  |  |  | 
9 | CCCC[C@H](NC(=O)[C@H](CCCNC(=N)N)NC(C)=O)C(=O)N[C@H]1CSSC[C@@H](C(N)=O)NC(=O)[C@H](Cc2c[nH]c3ccccc23)NC(=O)[C@H](CCCNC(=N)N)NC(=O)[C@@H](Cc2cccc3ccccc23)NC(=O)[C@H](CCCNC(=N)N)NC1=O [CTX-1611, Arg-Nle-cyclo(Cys-Arg-D-Nal(1′)-Arg-Trp-Cys)] (Ac-R[Nle]CR[d1Nal]RWC-NH2; disulfide 3-8 (inferred)) | 58 | 6.61 | 0.25 | 67 | 7.96 | 8.80 |  | 
10 | CC(=O)N[C@H]1CSSC[C@@H](C(N)=O)NC(=O)[C@H](Cc2c[nH]c3ccccc23)NC(=O)[C@H](CCCNC(=N)N)NC(=O)[C@@H](Cc2ccccc2)NC(=O)[C@H](CCCNC(N)=O)NC(=O)CNC1=O [CTX-1630, cyclo(Cys-Gly-Cit-D-Phe-Arg-Trp-Cys)] (Ac-CG[Cit][dF]RWC-NH2; disulfide 1-7 (inferred)) | 35 | 28 | 1816 | 102 |  |  |  | 
11 | CC(=O)N[C@@H](CCCNC(=N)N)C(=O)N[C@H]1CSSC[C@@H](C(N)=O)NC(=O)[C@@H](Cc2c[nH]c3ccccc23)NC(=O)[C@H](CCCNC(=N)N)NC(=O)[C@@H](Cc2ccccc2)NC(=O)[C@H](Cc2c[nH]cn2)NC(=O)C(C)(C)NC1=O [CTX-1296, Arg-cyclo(Cys-Aib-His-D-Phe-Arg-D-Trp-Cys)] | 93 | 22 | 11 | 99 | 8.00 |  |  | 
12 | CC1(C)NC(=O)CSC[C@@H](C(N)=O)NC(=O)[C@H](Cc2ccccc2)NC(=O)[C@H](CCCNC(=N)N)NC(=O)[C@@H](Cc2ccccc2)NC(=O)[C@H](Cc2c[nH]cn2)NC1=O [CTX-1650, Thioether-cyclo(Aib-His-D-Phe-Arg-Phe-Cys)] ({CH2CO}-[Aib]H[dF]RFC-NH2; thioether N-6) | 125 | 53 | 0.95 | 113 |  | 6.54 |  | 
13 | CC1(C)NC(=O)CSC[C@@H](C(N)=O)NC(=O)[C@H](Cc2ccccc2)NC(=O)[C@H](CCCNC(=N)N)NC(=O)[C@@H](Cc2ccccc2)NC(=O)[C@H](CCCNC(N)=O)NC1=O [CTX-1652, Thioether-cyclo(Aib-Cit-D-Phe-Arg-Phe-Cys)] ({CH2CO}-[Aib][Cit][dF]RFC-NH2; thioether N-6) |  | Not active | Not active |  | < 5.00 | < 5.00 |  | 
14 | CC(=O)N[C@@H](CCCNC(=N)N)C(=O)N[C@H]1CSSC[C@@H](C(N)=O)NC(=O)[C@@H](Cc2ccccc2)NC(=O)[C@H](CCCNC(=N)N)NC(=O)[C@@H](Cc2ccccc2)NC(=O)[C@H](CCCNC(=N)N)NC(=O)[C@@H](C)NC1=O [CTX-1265, Arg-cyclo(Cys-D-Ala-Arg-D-Phe-Arg-D-Phe-Cys)] (Ac-RC[dA]R[dF]R[dF]C-NH2; disulfide 2-8 (inferred)) |  | 0.04 | 0.02 |  |  |  | (60%) | (71%)
15 | CC(=O)N[C@H]1CSSC[C@@H](C(N)=O)NC(=O)[C@H](Cc2ccccc2)NC(=O)[C@H](CCCNC(=N)N)NC(=O)[C@@H](Cc2ccccc2)NC(=O)[C@H](Cc2c[nH]cn2)NC(=O)C(C)(C)NC1=O [CTX-1634, cyclo(Cys-Aib-His-D-Phe-Arg-Phe-Cys)] (Ac-C[Aib]H[dF]RFC-NH2; disulfide 1-7 (inferred)) | 94 | 6.68 | 4.02 | 107 |  |  |  | 
